Measured values published in patent publication US5279812A, “Radiolabeled anticoagulant peptides” (Merrell Dow Pharmaceuticals Inc., priority 1991, dated 1994).

Target: T1, Bovine thrombin (Bos taurus, UniProt P00735)
T1 construct: Bovine thrombin was titrated to an appropriate concentration
Assay: thrombin induced fibrin clot inhibition assay
Type: biochemical
Conditions: read-out: In vitro potency
Protocol: Samples were tested in a thrombin induced fibrin clot inhibition assay. All the solutions of the assay were made with an assay buffer containing 0.12 M sodium chloride, 0.01 M sodium phosphate, 0.01% sodium azide and 0.1% bovine serum albumin, pH 7.4. […] This solution of thrombin (50 ul; 0.2 pmol) was added to the wells of a microtiter plate containing 50 ul of a solution of the synthetic peptide being tested. […] The turbidity of the solution was monitored by the autoreader at 5 min intervals. […] For the assays using human or bovine thrombin, thrombin was titrated to concentrations that gave the fibrin clot at the same rate over a 30 min period.

With `CC[C@H](C)[C@H](NC(=O)[C@@H]1CCCN1C(=O)[C@H](CCC(=O)O)NC(=O)[C@H](Cc1cc(I)c(O)c(I)c1)NC(=O)CCC(=O)O)C(=O)N1CCC[C@H]1C(=O)N[C@@H](CCC(=O)O)C(=O)N[C@@H](CCC(=O)O)C(=O)N[C@@H](C)C(=O)N[C@@H](CC1CCCCC1)C(=O)N[C@H](CCC(=O)O)C(=O)O` [Example 1] the IC50 was < 25 µM.
